Data as given in article PMC7065771, “Dietary supplementation of recombinant antimicrobial peptide Epinephelus lanceolatus piscidin improves growth performance and immune response in Gallus gallus domesticus” (PLoS ONE, 2020).

Tests used:
[1] = test system: Riemerella anatipestifer (CFC27); assay: Inhibition zone (disk diffusion) assay; type: cell-based; details: disk paper 16 h at 37°C, shake-flask supernatant 120 h after induction
Description: (§1) All assays were performed in triplicate.
(§2) The antimicrobial activity of rEP from flask cultures was evaluated by determining its ability to prevent growth of Gram-positive and Gram-negative bacteria with a disk diffusion assay. […] The most susceptible pathogens were R. anatipestifer (CFC27) and R. anatipestifer (CFC437) (Table 3a). Next, we investigated the thermostability of flask-fermented rEP with regard to its toxicity toward S. aureus (BCRC 10780), E. coli (BCRC 10675) and P. aeruginosa (ATCC 19660). Empty vector with no insert in P. pastoris was used as a control. Thermostability was measured by disk diffusion assay after cultures were incubated for 5 min at 40, 60, 80, or 100°C (Table 3b).

[2] = test system: Pseudomonas aeruginosa (ATCC 19660); assay: Inhibition zone (disk diffusion) assay; type: cell-based; details: then disk diffusion 16 h at 37°C
Description: as §1, §2

[3] = test system: Escherichia coli (BCRC 10675); assay: Inhibition zone (disk diffusion) assay; type: cell-based; details: then disk diffusion 16 h at 37°C
Description: as §1, §2

[4] = test system: K. oxytoca; assay: Inhibition zone assay, flask culture supernatant; type: cell-based, Klebsiella oxytoca; details: flask culture supernatant after 5 days of methanol induction
Description: as §1
Fig 4 Antimicrobial activity of rEP produced in P. pastoris by flask and fermenter methods. (a) rEP concentration in the yeast culture supernatant before and after induction with methanol for 24 h to 120 h in flask culture. […] The marker “-” represents Gram-negative; “+” represents Gram-positive. (b) The antibacterial activity of rEP produced by the fermenter method. Yeast were induced with methanol from 24 h to 120 h in a fermenter.

[5] = thermostability: flask supernatant incubated 5 min at 40°C
[6] = thermostability: flask supernatant incubated 5 min at 60°C

For “EFFIFHIIKGLFHAGRMIHGLVNRRRHRHHHHHH [rEP, recombinant His-tagged Epinephelus lanceolatus piscidin from Pichia pastoris, used as crude culture supernatant or spray-dried powder]”, the Inhibition zone diameter ([1]; first of two values printed) was 12 mm, the Inhibition zone diameter ([1]; second of two values printed) was 14 mm and the “Inhibition zone diameter after heat treatment” value [2, 5] was 10.1±0.3 mm. The “Inhibition zone diameter after heat treatment” value [2, 6] was 9.5±0.2 mm, the “Inhibition zone diameter after heat treatment” value [3, 5] was 9.0±1.0 mm and the “Inhibition zone diameter after heat treatment” value [3, 6] was 9.0±1.0 mm. The “Inhibition zone diameter after heat treatment” value ([3]; thermostability: flask supernatant incubated 5 min at 80°C) was 8.6±0.5 mm and the Inhibition zone [4] was “large inhibition zones”.
